{
  "source": "patent US20070141015A1",
  "about": "“TOPICAL ADMINISTRATION CARRIER COMPOSITION AND THERAPEUTIC FORMULATIONS COMPRISING SAME” (priority 2005, published 2007)",
  "origin": "cited, not measured here",
  "key": {"[1]": {"settings": "antihypertensive use, chronic 30 mg/day"}},
  "data": [
    {"smiles": "Nc1cc(N2CCCCC2)nc(N)[n+]1[O-]", "note": "[Minoxidil]", "values": [
      {"measurement": "1 hour peak plasma level", "setting": "antihypertensive use, after 5 mg starting dose", "value": "Antihypertensive: 1 hour peak after 5 mg starting dose: 60 ng/mL plasma;"},
      {"measurement": "steady-state peak level", "setting": "[1]", "value": 250, "unit": "ng/mL"},
      {"measurement": "steady-state trough level", "setting": "[1]", "value": 40, "unit": "ng/mL"},
      {"measurement": "plasma level", "setting": "topical hair growth stimulant, 1 mL 2% b.i.d. dose", "value": "Less than 2-30 ng/ML plasma."}
    ]}
  ]
}
